Laboratory results published in ChEMBL document CHEMBL1201862, “PubChem BioAssay data set” (2004).
Activity calls are given as the source filed them. For most assays here, no stated cut-off is given here; in the data, actives have a measured EC50 and inactives only a lower limit.

Columns and labels:
[1] = Luminescence Cell-Based Dose Response HTS to Identify Inhibitors of 5'UTR Stem-Loop Driven Prion Protein mRNA Translation in H4 Neuroglioblastoma Cells. [Related pubchem assays: 1827 (Project Summary), 1813 (Primary HTS)]; assay type: functional
[2] = luciferase reporter signal suppression in cells – H4 neuroglioma cells, luminescence, dose response (AID 1990); assay type: functional, cell-based
[3] = alpha-synuclein stem-loop luciferase translation blockers – H4 neuroglioma cells, luminescence, confirmation (AID 1988); assay type: functional, cell-based
Streptokinase A = biological target: T1, Streptokinase A (Streptococcus pyogenes serotype M1, UniProt P10520); experiment: viability-normalized secreted streptokinase activity reduction – plasminogen activation absorbance, OD405, dose response (AID 1914); assay type: functional, Streptococcus pyogenes M1 GAS;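 further: secreted streptokinase activity via plasminogen activation per viability signal from cell pellet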
T1 sequence (P10520 whole entry): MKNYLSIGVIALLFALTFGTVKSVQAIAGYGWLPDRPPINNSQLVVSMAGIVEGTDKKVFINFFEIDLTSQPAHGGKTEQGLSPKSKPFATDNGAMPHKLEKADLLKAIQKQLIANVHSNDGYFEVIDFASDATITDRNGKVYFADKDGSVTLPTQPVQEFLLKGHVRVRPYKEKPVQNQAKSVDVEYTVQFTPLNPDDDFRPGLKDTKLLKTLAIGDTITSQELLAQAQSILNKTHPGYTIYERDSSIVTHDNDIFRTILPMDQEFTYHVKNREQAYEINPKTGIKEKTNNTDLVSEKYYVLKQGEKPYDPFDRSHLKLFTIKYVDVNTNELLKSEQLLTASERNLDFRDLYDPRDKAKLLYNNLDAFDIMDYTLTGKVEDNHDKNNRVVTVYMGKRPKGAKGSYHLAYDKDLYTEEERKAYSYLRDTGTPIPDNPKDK

Streptococcus = experiment: GAS UMAA2166 growth inhibition – luminescence, BacTiterGlo, counter-screen for streptokinase expression inhibitor project, dose response (AID 1915); assay type: functional, organism-based;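 further: potency for reduction of bacterial viability or growth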
[4] = test system: Streptococcus sp. 'group A'; experiment: Streptococcus pyogenes SK(-)GAS viability under kanamycin – luminescence, BacTiterGlo, confirmation, counter-screen for streptokinase expression inhibitor project, dose response (AID 1900); assay type: functional, organism-based
INS1 = experiment: INS-1E survival protection against cytokine death – cell-based, luminescence, retest, dose response (AID 449756); assay type: functional; details: Rattus norvegicus;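 further: cell death triggered by IL-1 beta plus TNF-alpha plus IFN-gamma mixture; protective hits raise ATP signal compared with cytokine alone wells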
Cytochrome P450 3A4 = Cytochrome P450 3A4 (Homo sapiens, UniProt P08684);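 further: CYP3A4 tested as one member of a cytochrome P450 panel screen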
[5] = biological target: T2, RNA-binding protein pos-1 (Caenorhabditis elegans, UniProt G5EF15); experiment: disruptors of C. elegans POS-1 RNA interaction – biochemical, fluorescence polarization, dose response (AID 1964);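 further: purified POS-1 fused to maltose binding protein made in E. coli; potency of compounds blocking POS-1 binding to fluorescent RNA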
T2 sequence (G5EF15 whole entry): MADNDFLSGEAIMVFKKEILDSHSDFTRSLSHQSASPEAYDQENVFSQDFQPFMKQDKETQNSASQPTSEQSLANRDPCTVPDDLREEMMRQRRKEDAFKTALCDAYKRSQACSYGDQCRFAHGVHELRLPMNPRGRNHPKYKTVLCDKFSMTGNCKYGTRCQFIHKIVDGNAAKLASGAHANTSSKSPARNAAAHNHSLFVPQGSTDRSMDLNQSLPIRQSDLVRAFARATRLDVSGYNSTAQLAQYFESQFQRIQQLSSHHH

[6] = biological target: T3, Heat shock factor protein 1 (Mus musculus, UniProt P38532); experiment: decrease of HSF1-responsive luciferase luminescence – cell-based, NIH3T3, dose retest, confirmation (AID 2382); assay type: functional;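 further: NIH3T3 fibroblasts with HSF1-driven luciferase reporter stressed by proteasome inhibitor MG132; luminescence from HSF1-driven luciferase expression after 8 hours of MG132 stress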
T3 sequence (P38532 whole entry): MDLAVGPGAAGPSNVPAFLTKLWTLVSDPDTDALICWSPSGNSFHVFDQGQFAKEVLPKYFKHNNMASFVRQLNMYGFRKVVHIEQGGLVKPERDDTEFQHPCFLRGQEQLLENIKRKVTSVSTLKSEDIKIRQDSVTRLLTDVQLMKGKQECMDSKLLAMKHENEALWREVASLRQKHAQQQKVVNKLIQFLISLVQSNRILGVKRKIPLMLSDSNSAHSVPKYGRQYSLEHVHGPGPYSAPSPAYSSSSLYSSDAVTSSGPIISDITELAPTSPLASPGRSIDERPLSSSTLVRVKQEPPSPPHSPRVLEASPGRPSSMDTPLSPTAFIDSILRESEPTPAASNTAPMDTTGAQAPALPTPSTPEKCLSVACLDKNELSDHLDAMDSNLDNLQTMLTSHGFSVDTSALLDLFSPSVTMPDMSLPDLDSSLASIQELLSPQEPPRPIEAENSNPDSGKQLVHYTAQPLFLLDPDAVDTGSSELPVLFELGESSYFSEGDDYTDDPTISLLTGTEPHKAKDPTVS

[7] = non-specific 3'UTR reporter inhibition in Clone20-Shn3RL – cell-based, Renilla luciferase, cherry-picked, counter-screen for Shn3 inhibitor project, dose response (AID 624133); assay type: functional

Chain of Cytochrome P450 3A4 (P08684 whole entry, the tested form may be a part): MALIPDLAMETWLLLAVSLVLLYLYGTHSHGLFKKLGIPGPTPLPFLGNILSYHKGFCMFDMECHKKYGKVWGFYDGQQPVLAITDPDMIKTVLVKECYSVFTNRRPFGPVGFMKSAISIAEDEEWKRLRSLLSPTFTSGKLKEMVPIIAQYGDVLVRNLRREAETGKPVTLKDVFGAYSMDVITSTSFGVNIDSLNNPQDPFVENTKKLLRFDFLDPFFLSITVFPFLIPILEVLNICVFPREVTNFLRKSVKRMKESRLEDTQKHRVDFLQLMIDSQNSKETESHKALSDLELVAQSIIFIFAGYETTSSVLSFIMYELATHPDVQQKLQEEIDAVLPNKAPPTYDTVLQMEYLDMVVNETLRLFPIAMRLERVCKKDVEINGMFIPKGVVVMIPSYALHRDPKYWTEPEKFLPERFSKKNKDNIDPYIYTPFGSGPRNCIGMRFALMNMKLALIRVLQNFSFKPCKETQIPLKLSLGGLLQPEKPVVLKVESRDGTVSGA

SMILES	EC50 [1]	EC50 [2]	EC50 [3]	also measured
COc1ccc(NC(=O)CN2C(=O)COc3ccc(S(=O)(=O)N4CCCCCC4)cc32)cc1	> 120 µM (not active)	> 120 µM (not active)	> 120 µM (not active)	
CCOc1ccc(C(=O)N/N=C(\c2ccccc2)c2ccccn2)cc1				EC50 (Streptokinase A): > 150 µM (not active); EC50 (Streptococcus): 11.8 µM (active); EC50 [4]: 4.25 µM (active); AC50 (INS1): 1.19 µM (active)
S=C(c1ccc(-c2ccccc2)cc1)N1CCOCC1	15.5 µM (active)	10.9 µM (active)	9.91 µM (active)	
CCn1c(SCc2cc(O)nc3ccccc23)nnc1C1CC1	> 120 µM (not active)	> 120 µM (not active)	> 120 µM (not active)	
CC(=O)N1CCC2(CCCN(c3ccccc3)C2)CC1				AC50 (Cytochrome P450 3A4): 20 µM (inconclusive)
COc1ccc(N2C(=O)NC(=O)/C(=C\c3cn(C)c4ccccc34)C2=O)cc1				EC50 [5]: 1.05 µM (active)
CC(O)CNc1nc2sc3c(c2c(=O)n1Cc1ccco1)CCCCC3 (stereo not given)				AC50 (INS1): 45 µM (active)
CC1(C)CC(NCc2ccc3c(c2)OCO3)CCO1 (stereo not given)				AC50 (Cytochrome P450 3A4): 17.8 µM (inconclusive); EC50 [6]: > 195 µM (not active)
C=C(C)C(=O)N1CC2(CC(c3cccc(NC(=O)COc4ccc(Cl)cc4)c3)=NO2)C[C@@H]1C(N)=O (stereo not given in full)				AC50 (INS1): 9.67 µM (active)
Cc1cc(NC(=O)CSc2nc3ccccc3[nH]2)n(-c2ccccc2)n1	> 120 µM (not active)	> 120 µM (not active)	> 120 µM (not active)	
CCOC(=O)c1cccc(NC(=O)Nc2ccc(OCC)cc2)c1	10.8 µM (active)	11.2 µM (inconclusive)	9.81 µM (active)	
CCc1ccc(OC)c(S(=O)(=O)Nc2ccc(Cc3ccncc3)cc2)c1				AC50 (INS1): 3.7 µM (active)
Cc1ccc(C(=O)NC2CCN(S(=O)(=O)c3ccc(C)cc3)CC2)cc1	4.43 µM (active)	> 120 µM (not active)	45.4 µM (active)	
CCOc1ccccc1-c1nnc(SCC(=O)NC2CC3CCC2C3)n1CC (stereo not given)	> 120 µM (not active)	> 120 µM (not active)	16.7 µM (active)	
COc1ccccc1NC(=O)Nc1nc(-c2cccnc2)nc2ccccc12				AC50 (Cytochrome P450 3A4): 0.631 µM (inconclusive)
O=S(=O)(c1cccs1)N1CCN(CC(O)COc2cc(Cl)ccc2Cl)CC1 (stereo not given)				AC50 (INS1): 5.11 µM (active)
CCCC/C(=N\CCc1c(C)[nH]c2ccc(OC)cc12)C1=C(O)CC(c2ccccc2)CC1=O (stereo not given)	> 120 µM (not active)	9.11 µM (active)	2.61 µM (active)	
CC(=O)OC[C@H]1O[C@@H](O/N=C(\C)CCN2CCCc3nc(C)c(C)cc32)[C@H](OC(C)=O)[C@@H](OC(C)=O)[C@H]1OC(C)=O				AC50 (Cytochrome P450 3A4): 3.98 µM (inconclusive)
CCNc1ncc2nc(CCc3ccccc3)c(=O)n(C)c2n1				AC50 (Cytochrome P450 3A4): 31.6 µM (inconclusive)
O=C(CSc1nc2cc(Cl)c[nH]c-2n1)N1CCOCC1				AC50 [7]: 32.3 µM (active)
